Each structure is given as a SMILES string. A value given as a limit tells only on which side of the number the result lay.

The target in one assay is SMARCA2 (Homo sapiens, UniProt P51531). Nature of the assay: HiBit assay in engineered HT1080 CRISPR knock-in cell, 6 hrs (B series), SMARCA2. In kind it is cell-based. Particulars: 6 hrs incubation; for DC50: read-out: SMARC A2 HT1080 HiBit DC50; for Dmax: HT-1080, HT1080 CRISPR knock-in cells, read-out: SMARC A2 HT1080 HiBit Dmax (%). As for the experimental part: (§1) The HiBit assay was performed using engineered HT1080 CRISPR knock-in cell utilizing the Nano-Glo HiBiT Lytic Detection System from Promega, Cat #N3040. Compounds were transferred, 25 nL DMSO or test compounds (final DMSO @ 0.1%) to intermediate plates (Corning3570) using ECHO550. Cells were seeded onto compounds at 2000 cells/25 μL/well and incubated for 6 hrs in a tissue culture incubator at 37° C. and 5% CO2. The LgBiT Protein was diluted at 1:100 and the Nano-Glo® HiBIT Lytic Substrate 1:50 into an appropriate volume of room temperature using the Nano-Glo® HiBiT Lytic Buffer. At the end of compound incubation time, 15 ul of the detection reagent was added to each well (without LgBiT for negative control wells) using the Thermo Scientific multidrop combi. The plate was shaken for 10 mins at RT using Combi. After briefly centrifugation (2000 rpm 1 mins), plate was read on Envision (Ultrasensitive luminescence model).
SMARCA2, sequence (P51531 whole entry): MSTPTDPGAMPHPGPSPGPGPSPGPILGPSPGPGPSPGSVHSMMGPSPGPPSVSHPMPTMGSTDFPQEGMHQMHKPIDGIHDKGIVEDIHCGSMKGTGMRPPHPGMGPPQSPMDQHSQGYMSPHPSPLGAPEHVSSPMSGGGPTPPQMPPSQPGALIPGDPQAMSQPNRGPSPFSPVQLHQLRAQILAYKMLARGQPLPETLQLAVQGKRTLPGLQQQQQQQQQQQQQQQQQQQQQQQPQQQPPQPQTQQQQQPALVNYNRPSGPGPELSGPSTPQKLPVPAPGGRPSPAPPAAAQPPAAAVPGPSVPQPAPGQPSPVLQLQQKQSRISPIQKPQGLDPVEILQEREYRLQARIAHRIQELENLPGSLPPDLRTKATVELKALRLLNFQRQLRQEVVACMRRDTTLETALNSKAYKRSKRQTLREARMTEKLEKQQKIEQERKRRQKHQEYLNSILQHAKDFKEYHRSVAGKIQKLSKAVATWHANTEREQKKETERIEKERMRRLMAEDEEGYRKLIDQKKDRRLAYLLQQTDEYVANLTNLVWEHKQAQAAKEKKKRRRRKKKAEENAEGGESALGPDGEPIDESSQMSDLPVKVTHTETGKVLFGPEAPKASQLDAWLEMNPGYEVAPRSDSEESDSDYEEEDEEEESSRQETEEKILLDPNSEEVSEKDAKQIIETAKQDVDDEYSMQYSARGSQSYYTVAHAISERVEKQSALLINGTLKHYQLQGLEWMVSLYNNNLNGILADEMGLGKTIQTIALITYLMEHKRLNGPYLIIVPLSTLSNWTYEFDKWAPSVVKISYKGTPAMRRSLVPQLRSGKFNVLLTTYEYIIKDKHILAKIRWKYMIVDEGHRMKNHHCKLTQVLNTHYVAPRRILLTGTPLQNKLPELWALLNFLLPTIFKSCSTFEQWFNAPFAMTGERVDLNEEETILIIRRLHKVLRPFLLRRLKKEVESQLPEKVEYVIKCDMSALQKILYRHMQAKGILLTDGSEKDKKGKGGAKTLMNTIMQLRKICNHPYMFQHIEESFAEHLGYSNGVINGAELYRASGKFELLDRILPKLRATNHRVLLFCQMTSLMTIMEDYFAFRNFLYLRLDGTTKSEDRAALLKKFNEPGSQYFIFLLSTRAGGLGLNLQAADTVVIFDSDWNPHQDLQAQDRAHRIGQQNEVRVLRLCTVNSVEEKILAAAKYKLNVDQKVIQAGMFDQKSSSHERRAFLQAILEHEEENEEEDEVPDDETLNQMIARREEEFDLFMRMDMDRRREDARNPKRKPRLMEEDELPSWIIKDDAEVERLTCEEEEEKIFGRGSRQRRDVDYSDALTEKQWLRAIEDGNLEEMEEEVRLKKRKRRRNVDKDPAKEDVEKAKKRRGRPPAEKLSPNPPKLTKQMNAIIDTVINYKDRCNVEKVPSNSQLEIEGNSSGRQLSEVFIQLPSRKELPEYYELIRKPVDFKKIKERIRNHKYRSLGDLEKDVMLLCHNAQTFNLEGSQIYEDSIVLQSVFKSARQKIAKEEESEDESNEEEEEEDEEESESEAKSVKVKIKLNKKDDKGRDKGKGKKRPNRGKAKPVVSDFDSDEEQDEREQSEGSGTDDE
(HiBiT is a short tag that completes a luciferase, so light tracks the accessible tagged protein.)

The target of another assay is SMARCA4 (Homo sapiens, UniProt P51532). Nature of the assay: HiBit assay in engineered HT1080 CRISPR knock-in cell, 6 hrs (B series), SMARCA4. In kind it is cell-based. Conditions: 6 hrs incubation; for DC50: read-out: SMARC A4 HT1080 HiBit DC50; for Dmax: HT-1080, HT1080 CRISPR knock-in cells, read-out: SMARC A4 HT1080 HiBit Dmax(%). As for the experimental part: as §1
SMARCA4, sequence (P51532 whole entry): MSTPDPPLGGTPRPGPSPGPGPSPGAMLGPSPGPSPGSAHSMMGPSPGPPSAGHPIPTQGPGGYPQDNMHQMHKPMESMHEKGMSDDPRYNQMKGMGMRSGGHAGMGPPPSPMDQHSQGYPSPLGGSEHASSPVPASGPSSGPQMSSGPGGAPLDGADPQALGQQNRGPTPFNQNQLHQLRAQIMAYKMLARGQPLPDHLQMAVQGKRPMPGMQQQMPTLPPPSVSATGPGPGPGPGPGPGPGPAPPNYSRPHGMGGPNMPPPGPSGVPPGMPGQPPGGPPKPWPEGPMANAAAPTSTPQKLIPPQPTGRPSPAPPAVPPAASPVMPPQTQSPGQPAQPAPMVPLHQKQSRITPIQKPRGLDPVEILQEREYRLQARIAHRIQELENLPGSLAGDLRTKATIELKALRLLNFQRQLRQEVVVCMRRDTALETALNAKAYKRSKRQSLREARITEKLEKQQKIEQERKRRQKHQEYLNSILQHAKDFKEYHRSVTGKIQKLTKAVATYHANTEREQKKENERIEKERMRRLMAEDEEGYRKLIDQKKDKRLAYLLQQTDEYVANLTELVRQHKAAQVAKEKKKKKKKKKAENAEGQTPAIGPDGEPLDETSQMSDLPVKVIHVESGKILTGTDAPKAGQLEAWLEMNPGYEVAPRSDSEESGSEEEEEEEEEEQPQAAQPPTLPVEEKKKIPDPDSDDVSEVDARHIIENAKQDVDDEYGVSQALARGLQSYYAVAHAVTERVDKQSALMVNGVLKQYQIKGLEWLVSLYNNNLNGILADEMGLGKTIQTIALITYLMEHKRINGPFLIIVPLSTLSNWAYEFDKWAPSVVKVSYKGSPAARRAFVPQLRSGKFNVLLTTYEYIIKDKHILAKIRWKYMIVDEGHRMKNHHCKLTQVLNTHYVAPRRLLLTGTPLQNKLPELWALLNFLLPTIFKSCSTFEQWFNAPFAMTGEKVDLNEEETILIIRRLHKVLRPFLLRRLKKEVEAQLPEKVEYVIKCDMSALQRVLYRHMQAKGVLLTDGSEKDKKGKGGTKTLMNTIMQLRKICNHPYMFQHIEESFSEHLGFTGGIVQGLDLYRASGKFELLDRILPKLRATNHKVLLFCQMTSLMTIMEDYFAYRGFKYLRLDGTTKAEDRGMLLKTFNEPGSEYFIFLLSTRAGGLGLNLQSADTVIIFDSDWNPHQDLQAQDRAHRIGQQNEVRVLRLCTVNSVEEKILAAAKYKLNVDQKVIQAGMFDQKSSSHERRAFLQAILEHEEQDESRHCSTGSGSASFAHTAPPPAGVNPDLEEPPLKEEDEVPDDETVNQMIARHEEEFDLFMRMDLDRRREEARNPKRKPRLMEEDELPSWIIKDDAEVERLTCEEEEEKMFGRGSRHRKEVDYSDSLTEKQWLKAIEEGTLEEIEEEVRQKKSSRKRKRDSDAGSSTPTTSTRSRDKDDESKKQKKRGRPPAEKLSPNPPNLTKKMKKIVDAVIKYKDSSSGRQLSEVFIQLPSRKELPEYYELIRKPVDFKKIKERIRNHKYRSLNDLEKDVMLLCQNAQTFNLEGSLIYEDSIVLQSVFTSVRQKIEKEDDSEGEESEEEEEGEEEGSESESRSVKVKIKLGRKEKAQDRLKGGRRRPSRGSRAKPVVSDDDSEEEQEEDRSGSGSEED

As to `Cc1ncsc1-c1ccc([C@H](CCCCCN2CCC(c3ccc4c(c3)C(C)(C)c3nc(=O)c5c(Cl)cccc5n3-4)CC2)NC(=O)[C@@H]2C[C@@H](O)CN2C(=O)[C@@H](NC(=O)C2(F)CC2)C(C)(C)C)cc1` [Compound B7, (2S,4R)—N—((S)-6-(4-(4-chloro-7,7-dimethyl-5-oxo-5,7-dihydroindolo[1,2-a]quinazolin-9-yl)piperidin-1-yl)-1-(4-(4-methylthiazol-5-yl)phenyl)hexyl)-1-((S)-2-(1-fluorocyclopropane-1-carboxamido)-3,3-dimethylbutanoyl)-4-hydroxypyrrolidine-2-carboxamide], the DC50 on SMARCA2 (HT1080 CRISPR knock-in cells) and at SMARCA4 (HT1080 CRISPR knock-in cells) was under 100 nM in each case. For the same compound, the Dmax on SMARCA2 and at SMARCA4 was over 90% each time.
In the case of `Cc1ncsc1-c1ccc([C@H](C)NC(=O)[C@@H]2C[C@@H](O)CN2C(=O)C(c2cc(CN3CCC(c4ccc5c(c4)C(C)(C)c4nc(=O)c6c(Cl)cccc6n4-5)CC3)no2)C(C)C)cc1` (stereo partly drawn) [Compound B8, (2S,4R)-1-(2-(3-((4-(4-chloro-7,7-dimethyl-5-oxo-5,7-dihydroindolo[1,2-a]quinazolin-9-yl)piperidin-1-yl)methyl)isoxazol-5-yl)-3-methylbutanoyl)-4-hydroxy-N—((S)-1-(4-(4-methylthiazol-5-yl)phenyl)ethyl)pyrrolidine-2-carboxamide], the DC50 at SMARCA2 (HT1080 CRISPR knock-in cells) and on SMARCA4 (HT1080 CRISPR knock-in cells) was under 100 nM each time. The Dmax at SMARCA2 was over 90%; at SMARCA4 it was 70 to 90%.
For the compound `Cc1ncsc1-c1ccc([C@H](C)NC(=O)[C@@H]2C[C@@H](O)CN2C(=O)[C@@H](c2cc(N3CCC(CN4CCC(c5ccc6c(c5)C(C)(C)c5nc(=O)c7c(Cl)cccc7n5-6)CC4)CC3)no2)C(C)C)cc1` [Compound B9, (2S,4R)-1-((R)-2-(3-(4-((4-(4-chloro-7,7-dimethyl-5-oxo-5,7-dihydroindolo[1,2-a]quinazolin-9-yl)piperidin-1-yl)methyl)piperidin-1-yl)isoxazol-5-yl)-3-methylbutanoyl)-4-hydroxy-N—((S)-1-(4-(4-methylthiazol-5-yl)phenyl)ethyl)pyrrolidine-2-carboxamide], the DC50 on SMARCA2 (HT1080 CRISPR knock-in cells) and on SMARCA4 (HT1080 CRISPR knock-in cells) was under 100 nM in each case. The Dmax on SMARCA2 and at SMARCA4 was over 90% each time.
In the case of `Cc1ncsc1-c1ccc([C@H](C)NC(=O)[C@@H]2C[C@@H](O)CN2C(=O)[C@@H](c2cc(N3CCC(CN4CCC(c5cccc6c5C(C)(C)c5nc(=O)c7c(Cl)cccc7n5-6)CC4)CC3)no2)C(C)C)cc1` [Compound B10, (2S,4R)-1-((R)-2-(3-(4-((4-(4-chloro-7,7-dimethyl-5-oxo-5,7-dihydroindolo[1,2-a]quinazolin-8-yl)piperidin-1-yl)methyl)piperidin-1-yl)isoxazol-5-yl)-3-methylbutanoyl)-4-hydroxy-N—((S)-1-(4-(4-methylthiazol-5-yl)phenyl)ethyl)pyrrolidine-2-carboxamide], the DC50 on SMARCA2 (HT1080 CRISPR knock-in cells) and at SMARCA4 (HT1080 CRISPR knock-in cells) was under 100 nM in each case. In addition, the Dmax is over 90% at SMARCA2 and 70 to 90% on SMARCA4.
On to `Cc1ncsc1-c1ccc([C@H](C)NC(=O)[C@@H]2C[C@@H](O)CN2C(=O)[C@@H](c2cc(OCCCN3CCC(c4ccc5c(c4)C(C)(C)c4nc(=O)c6c(Cl)cccc6n4-5)CC3)no2)C(C)C)cc1` [Compound B11, (2S,4R)-1-((R)-2-(3-(3-(4-(4-chloro-7,7-dimethyl-5-oxo-5,7-dihydroindolo[1,2-a]quinazolin-9-yl)piperidin-1-yl)propoxy)isoxazol-5-yl)-3-methylbutanoyl)-4-hydroxy-N-((S)-1-(4-(4-methylthiazol-5-yl)phenyl)ethyl)pyrrolidine-2-carboxamide], for which the DC50 on SMARCA2 (HT1080 CRISPR knock-in cells) and at SMARCA4 (HT1080 CRISPR knock-in cells) was under 100 nM throughout. In addition, the Dmax on SMARCA2 and at SMARCA4 was over 90% each time.
With `Cc1ncsc1-c1ccc([C@H](C)NC(=O)[C@@H]2C[C@@H](O)CN2C(=O)[C@@H](c2cc(OCCCCN3CCC(c4ccc5c(c4)C(C)(C)c4nc(=O)c6c(Cl)cccc6n4-5)CC3)no2)C(C)C)cc1` [Compound B12, (2S,4R)-1-((R)-2-(3-(4-(4-(4-chloro-7,7-dimethyl-5-oxo-5,7-dihydroindolo[1,2-a]quinazolin-9-yl)piperidin-1-yl)butoxy)isoxazol-5-yl)-3-methylbutanoyl)-4-hydroxy-N-((S)-1-(4-(4-methylthiazol-5-yl)phenyl)ethyl)pyrrolidine-2-carboxamide], the DC50 on SMARCA2 (HT1080 CRISPR knock-in cells) and on SMARCA4 (HT1080 CRISPR knock-in cells) was under 100 nM in each case. For the same compound, the Dmax on SMARCA2 and on SMARCA4 was over 90% in each case.
On to `Cc1ncsc1-c1ccc([C@H](C)NC(=O)[C@@H]2C[C@@H](O)CN2C(=O)[C@@H](NC(=O)C2CC(N3CCC(c4ccc5c(c4)C(C)(C)c4nc(=O)c6c(Cl)cccc6n4-5)CC3)C2)C(C)(C)C)cc1` (stereo partly drawn) [Compound B13, (2S,4R)-1-((2S)-2-(3-(4-(4-chloro-7,7-dimethyl-5-oxo-5,7-dihydroindolo[1,2-a]quinazolin-9-yl)piperidin-1-yl)cyclobutane-1-carboxamido)-3,3-dimethylbutanoyl)-4-hydroxy-N-((S)-1-(4-(4-methylthiazol-5-yl)phenyl)ethyl)pyrrolidine-2-carboxamide], for which the DC50 is under 100 nM at SMARCA2 (HT1080 CRISPR knock-in cells) and 100 to 500 nM at SMARCA4 (HT1080 CRISPR knock-in cells). The Dmax on SMARCA2 was 70 to 90%; at SMARCA4 it was under 50%.
Regarding `Cc1ncsc1-c1ccc([C@H](C)NC(=O)[C@@H]2C[C@@H](O)CN2C(=O)[C@@H](NC(=O)C2CC(N3CCC(c4ccc5c(c4)C(C)(C)c4nc(=O)c6c(Cl)cccc6n4-5)CC3)C2)C(C)(C)C)cc1` (stereo partly drawn) [Compound B14, (2S,4R)-1-((2S)-2-(3-(4-(4-chloro-7,7-dimethyl-5-oxo-5,7-dihydroindolo[1,2-a]quinazolin-9-yl)piperidin-1-yl)cyclobutane-1-carboxamido)-3,3-dimethylbutanoyl)-4-hydroxy-N-((S)-1-(4-(4-methylthiazol-5-yl)phenyl)ethyl)pyrrolidine-2-carboxamide], on SMARCA2 (HT1080 CRISPR knock-in cells), the “SMARC A2 HT1080 HiBit Dmax (%)” value is reported as “A (A (>90% degradation))” and the DC50 was under 100 nM. Besides, on SMARCA4 (HT1080 CRISPR knock-in cells), the “SMARC A4 HT1080 HiBit Dmax(%)” value is recorded as “B (B (70-90% degradation))” and the DC50 lay in the range of 100 to 500 nM.
`Cc1ncsc1-c1ccc([C@H](C)NC(=O)[C@@H]2C[C@@H](O)CN2C(=O)C(c2cc(CCN3CCC(c4ccc5c(c4)C(C)(C)c4nc(=O)c6c(Cl)cccc6n4-5)CC3)no2)C(C)C)cc1` (stereo partly drawn) [Compound B15, (2S,4R)-1-(2-(3-(2-(4-(4-chloro-7,7-dimethyl-5-oxo-5,7-dihydroindolo[1,2-a]quinazolin-9-yl)piperidin-1-yl)ethyl)isoxazol-5-yl)-3-methylbutanoyl)-4-hydroxy-N-((S)-1-(4-(4-methylthiazol-5-yl)phenyl)ethyl)pyrrolidine-2-carboxamide]: the DC50 at SMARCA2 (HT1080 CRISPR knock-in cells) and at SMARCA4 (HT1080 CRISPR knock-in cells) was under 100 nM each time. Moreover, the Dmax on SMARCA2 and at SMARCA4 was over 90% in each case.
Regarding `Cc1ncsc1-c1ccc([C@H](C)NC(=O)[C@@H]2C[C@@H](O)CN2C(=O)[C@@H](NC(=O)c2cccc(CN3CCC(c4ccc5c(c4)C(C)(C)c4nc(=O)c6c(Cl)cccc6n4-5)CC3)c2)C(C)(C)C)cc1` [Compound B16, (2S,4R)-1-((S)-2-(3-((4-(4-chloro-7,7-dimethyl-5-oxo-5,7-dihydroindolo[1,2-a]quinazolin-9-yl)piperidin-1-yl)methyl)benzamido)-3,3-dimethylbutanoyl)-4-hydroxy-N—((S)-1-(4-(4-methylthiazol-5-yl)phenyl)ethyl)pyrrolidine-2-carboxamide], the DC50 at SMARCA2 (HT1080 CRISPR knock-in cells) and on SMARCA4 (HT1080 CRISPR knock-in cells) was under 100 nM each time. Moreover, the Dmax is over 90% at SMARCA2 and 70 to 90% on SMARCA4.
Turning to `Cc1ncsc1-c1ccc([C@H](C)NC(=O)[C@@H]2C[C@@H](O)CN2C(=O)[C@H](C(C)C)n2cc(CCN3CCC(c4ccc5c(c4)C(C)(C)c4nc(=O)c6c(Cl)cccc6n4-5)CC3)nn2)cc1` [Compound B17, (2S,4R)-1-((S)-2-(4-(2-(4-(4-chloro-7,7-dimethyl-5-oxo-5,7-dihydroindolo[1,2-a]quinazolin-9-yl)piperidin-1-yl)ethyl)-1H-1,2,3-triazol-1-yl)-3-methylbutanoyl)-4-hydroxy-N-((S)-1-(4-(4-methylthiazol-5-yl)phenyl)ethyl)pyrrolidine-2-carboxamide], the DC50 at SMARCA2 (HT1080 CRISPR knock-in cells) and at SMARCA4 (HT1080 CRISPR knock-in cells) was under 100 nM in each case. Besides, the Dmax at SMARCA2 and on SMARCA4 was over 90% each time.
Consider `Cc1ncsc1-c1ccc([C@H](C)NC(=O)[C@@H]2C[C@@H](O)CN2C(=O)[C@@H](NC(=O)C23CCC(CN4CCC(c5ccc6c(c5)C(C)(C)c5nc(=O)c7c(Cl)cccc7n5-6)CC4)(CC2)C3)C(C)(C)C)cc1` [Compound B18, (2S,4R)-1-((S)-2-(4-((4-(4-chloro-7,7-dimethyl-5-oxo-5,7-dihydroindolo[1,2-a]quinazolin-9-yl)piperidin-1-yl)methyl)bicyclo[2.2.1]heptane-1-carboxamido)-3,3-dimethylbutanoyl)-4-hydroxy-N-((S)-1-(4-(4-methylthiazol-5-yl)phenyl)ethyl)pyrrolidine-2-carboxamide], for which the DC50 at SMARCA2 (HT1080 CRISPR knock-in cells) and at SMARCA4 (HT1080 CRISPR knock-in cells) was under 100 nM throughout. The Dmax at SMARCA2 was over 90%; on SMARCA4, 70 to 90%.
